Measured values from PMC8980233, “Differentiating the Neuropharmacological Properties of Nicotinic Acetylcholine Receptor-Activating Alkaloids” (Frontiers in Pharmacology, 2022).

Tests used:
[1] = test system: zebrafish (Danio rerio; strain AB); assay: Zebrafish novel tank test (NTT)
Protocol: Adult male and female wild-type zebrafish were treated with the compounds for 20 min in a final volume of 50 ml in a 250-ml treatment beaker one fish at a time. The fish were briefly rinsed in fresh system water, and then immediately transferred to a trapezoidal tank (14.6 cm height x 5.5 cm width x 27.9 cm top length and x 23.6 cm bottom length) filled with 1.5 L system water. The behavior of the fish was monitored for the next 5 min by using the Noldus EthoVision XT system (Wageningen, Netherlands), with the camera placed approximately 1 m from the test tank. The part of the tank filled with water (11.5 cm height) was virtually divided into top, center, and bottom of equal heights (approximately 3.8 cm per segment) for the analysis. The average time spent at the top and bottom portions of the tank was analyzed to determine the anxiety-like behavior of fish. The average total distance travelled and freezing time were calculated to determine the effects of the compounds on the general behavior of fish. Freezing was defined by a complete cessation of movement except for gills and eyes ([Kalueff et al., 2013]). A minimum of 12 fish (6 females and 6 males) per condition were used for the study. The experimenter was blind to the test conditions.
If not, the dose was reduced until no obvious signs of tolerability problems were observed. […] The concentrations were calculated based on the free base molecular weight. Buspirone—a clinical anxiolytic drug used acutely and chronically to investigate the change in the anxiety-like behavior ([Maximino, et al., 2011]; [Maximino, et al., 2013])—was included as a positive control.

[2] = test system: C57Bl/6 mice; assay: SmartCube behavioral profiling; type: in vivo; details: single i.p. injection
From the text: The SmartCube^ ® system is a unique mouse behavior profiling system developed by PsychoGenics Inc. It extracts over 2000 spontaneous and challenge-induced behavioral features during a session ([Alexandrov et al., 2015]; [Alexandrov et al., 2016]). The recorded behavioral parameters are then compared against the behavioral profiles of marketed reference compounds in the database, and the test compounds are classified into known drug classes using PsychoGenics’ proprietary bioinformatics algorithms. In brief, mice were i. p. injected with vehicle or test compound at 10 ml/kg body weight and placed in the SmartCube^ ® arena (24 cm × 25 cm) 15 min later. Spontaneous and stimulus-induced behaviors of mice were recorded using force sensors distributed throughout the arena during a 45-min test session. In addition, three high-resolution video cameras provided a constant 3-dimensional (3D) view of the mouse behavior in the SmartCube^ ® arena throughout the testing period. The bedding was vacuumed, and the arena was cleaned with NOLVASAN^ ® solution between each run. Data from the SmartCube^ ® test were processed using PsychoGenics’ proprietary Computer Vision feature extraction, Bayesian probabilistic density models, and data mining algorithms, trained on a large library of reference compounds with known therapeutic indications to predict the underlying class of each test compound ([Alexandrov et al., 2015]; [Alexandrov et al., 2016]). Twelve mice were tested per condition. Mice were terminated after the completion of the SmartCube^ ® test.
The doses were calculated based on the free base molecular weight. The doses were selected based on the tolerability test results.

[3] = test system: C57Bl/6 mice; assay: Tolerability test (body weight, body temperature, passive signs, manipulation responses); details: for BT (°C) naïve / Manipulations naïve / Passive naïve: baseline; for BW Day 1 / BW Day 2: mean ± SD
Protocol: In brief, mice were single-housed prior to the test and evaluated for baseline body weight, body temperature, and other parameters. […] On day 1, the mice were i. p. injected with saline (vehicle) or a test compound at 10 ml/kg body weight. Then, body temperature was measured at 15 min, 4 h, and 24 h and body weight on days 1 and 2. Neurological and motor parameters were evaluated at 15 min, 2 h, and 4 h after administration. The list of parameters is provided in Supplementary Figure S1 in Supplementary Material S1.
In addition, within 5 min after the 15-min observation period, mice were placed in open-field chambers for 30 min to determine their general motor activity (distance traveled), ambulatory time, and number of rears. The open-field chambers were made of Plexiglas (27.3 × 27.3 × 20.3 cm; Med Associates Inc, St Albans, VT, United States) surrounded by infrared photobeam sources (16 × 16 × 16 beams). Horizontal activity (distance and time traveled) and vertical activity (number and frequency of rears) were measured by consecutive beam breaks. At the end of each open-field test session, the chambers were thoroughly cleaned with NOLVASAN® solution (Zoetis Services LLC, Parsippany, NJ, United States). Four mice were used per treatment condition. Mice were terminated after completion of the last tolerability observation.
All compounds were diluted in saline, and the pH was adjusted to approximately 7.0 with HCl or NaOH on the day of the experiment. […] The doses were calculated based on the free base molecular weight of the compounds.
For the tolerability tests, passive signs and manipulation responses were analyzed for effects of the treatment by the Kruskal–Wallis test. Body temperature and body weight data were analyzed by two-way repeated measures analysis of variance (ANOVA). The total distance and time traveled and number and frequency of rears in the open-field activity test were analyzed by one-way ANOVA, followed by the Tukey post-hoc test. For the analyses of the zebrafish NTT data, one-way ANOVA was used, followed by Dunnett’s multiple comparison test, if it passed the Shapiro-Wilk normality test. […] An effect was considered significant if p < 0.05. The half maximal effective concentration (EC50) and half-maximal inhibitory concentration (IC50) for the receptor pharmacology and neurotransmitter release assay were determined by using nonlinear regression analysis. Statistical analyses were conducted using GraphPad Prism.

[4] = only at the highest dose tested (10 mg/L)
[5] = 1, 3, and 10 mg/L, 20 min treatment

C1=CCC(c2cccnc2)NC1 (racemic) [Anatabine, (±)-Anatabine]
total distance travelled ([1]; 0.3 and 10 mg/L): reduced
freezing time ([1]; only at 0.3 mg/L): increased
time spent at the bottom [1, 4]: reduced the time spent at the bottom
time spent at the top [1, 4]: increased the time spent at the top
SmartCube drug classification / behavioral features ([2]; all doses tested): no detectable effect
BT (°C) naïve ([3]; 1 mg/kg group): 37.95 ± 0.13 °C
Manipulations naïve ([3]; 1 mg/kg group): 0.00 ± 0.00
Passive naïve ([3]; 1 mg/kg group): 0.00 ± 0.00
BT (°C) 15min ([3]; 1 mg/kg i.p.): 36.98 ± 0.41 °C
BT (°C) 4hr ([3]; 1 mg/kg i.p.): 36.65 ± 0.33 °C
BT (°C) 24hr ([3]; 1 mg/kg i.p.): 36.88 ± 0.43 °C
Manipulations 15min ([3]; 1 mg/kg i.p.): 0.00 ± 0.00
Manipulations 2hr ([3]; 1 mg/kg i.p.): 0.00 ± 0.00
Manipulations 4hr ([3]; 1 mg/kg i.p.): 0.00 ± 0.00
Passive 15min ([3]; 1 mg/kg i.p.): 0.00 ± 0.00
Passive 2hr ([3]; 1 mg/kg i.p.): 0.00 ± 0.00
Passive 4hr ([3]; 1 mg/kg i.p.): 0.00 ± 0.00
BW Day 1 ([3]; 1 mg/kg i.p.): 24.46 ± 2.30
BW Day 2 ([3]; 1 mg/kg i.p.): 24.64 ± 2.56
BT (°C) naïve ([3]; 2 mg/kg group): 37.83 ± 0.15 °C
Manipulations naïve ([3]; 2 mg/kg group): 0.00 ± 0.00
Passive naïve ([3]; 2 mg/kg group): 0.00 ± 0.00
BT (°C) 15min ([3]; 2 mg/kg i.p.): 35.28 ± 0.49 °C
BT (°C) 4hr ([3]; 2 mg/kg i.p.): 36.48 ± 0.49 °C
BT (°C) 24hr ([3]; 2 mg/kg i.p.): 36.45 ± 0.30 °C
Manipulations 15min ([3]; 2 mg/kg i.p.): 0.00 ± 0.00
Manipulations 2hr ([3]; 2 mg/kg i.p.): 0.00 ± 0.00
Manipulations 4hr ([3]; 2 mg/kg i.p.): 0.00 ± 0.00
Passive 15min ([3]; 2 mg/kg i.p.): 0.00 ± 0.00
Passive 2hr ([3]; 2 mg/kg i.p.): 0.00 ± 0.00
Passive 4hr ([3]; 2 mg/kg i.p.): 0.00 ± 0.00
BW Day 1 ([3]; 2 mg/kg i.p.): 24.64 ± 1.69
BW Day 2 ([3]; 2 mg/kg i.p.): 24.89 ± 2.21
BT (°C) naïve ([3]; 4 mg/kg group): 38.08 ± 0.05 °C
Manipulations naïve ([3]; 4 mg/kg group): 0.00 ± 0.00
Passive naïve ([3]; 4 mg/kg group): 0.00 ± 0.00
BT (°C) 15min ([3]; 4 mg/kg i.p.): 33.92 ± 0.30 °C
BT (°C) 4hr ([3]; 4 mg/kg i.p.): 36.30 ± 0.40 °C
BT (°C) 24hr ([3]; 4 mg/kg i.p.): 36.63 ± 0.17 °C
Manipulations 15min ([3]; 4 mg/kg i.p.): 0.00 ± 0.00
Manipulations 2hr ([3]; 4 mg/kg i.p.): 0.00 ± 0.00
Manipulations 4hr ([3]; 4 mg/kg i.p.): 0.00 ± 0.00
Passive 15min ([3]; 4 mg/kg i.p.): 0.00 ± 0.00
Passive 2hr ([3]; 4 mg/kg i.p.): 0.00 ± 0.00
Passive 4hr ([3]; 4 mg/kg i.p.): 0.00 ± 0.00
body temperature 15 min after the injection ([3]; 4 mg/kg i.p.): decreased the body temperature
BW Day 1 ([3]; 4 mg/kg i.p.): 24.73 ± 1.23
BW Day 2 ([3]; 4 mg/kg i.p.): 24.43 ± 1.13

CN1CCC[C@H]1c1cccnc1 [Nicotine, (-)-Nicotine]
time spent at the bottom [1, 5]: reduced the time spent at the bottom
time spent at the top [1, 5]: increased the time spent at the top
freezing response ([1]; 1 and 10 mg/L): no freezing response
total distance traveled ([1]; 1 and 10 mg/L): decreased total distance traveled
SmartCube drug classification / behavioral features ([2]; highest dose 0.5 mg/kg body weight): anxiolytic-like behavior features
BT (°C) naïve ([3]; 0.25 mg/kg group): 37.83 ± 0.15 °C
Manipulations naïve ([3]; 0.25 mg/kg group): 0.00 ± 0.00
Passive naïve ([3]; 0.25 mg/kg group): 0.00 ± 0.00
BT (°C) 15min ([3]; 0.25 mg/kg i.p.): 37.48 ± 0.98 °C
BT (°C) 4hr ([3]; 0.25 mg/kg i.p.): 36.88 ± 0.97 °C
BT (°C) 24hr ([3]; 0.25 mg/kg i.p.): 36.43 ± 0.87 °C
Manipulations 15min ([3]; 0.25 mg/kg i.p.): 0.00 ± 0.00
Manipulations 2hr ([3]; 0.25 mg/kg i.p.): 0.00 ± 0.00
Manipulations 4hr ([3]; 0.25 mg/kg i.p.): 0.00 ± 0.00
Passive 15min ([3]; 0.25 mg/kg i.p.): 0.00 ± 0.00
Passive 2hr ([3]; 0.25 mg/kg i.p.): 0.00 ± 0.00
Passive 4hr ([3]; 0.25 mg/kg i.p.): 0.00 ± 0.00
BW Day 1 ([3]; 0.25 mg/kg i.p.): 24.54 ± 0.97
BW Day 2 ([3]; 0.25 mg/kg i.p.): 24.33 ± 0.99
BT (°C) naïve ([3]; 0.5 mg/kg group): 37.93 ± 0.17 °C
Manipulations naïve ([3]; 0.5 mg/kg group): 0.00 ± 0.00
Passive naïve ([3]; 0.5 mg/kg group): 0.00 ± 0.00
BT (°C) 15min ([3]; 0.5 mg/kg i.p.): 36.48 ± 0.90 °C
BT (°C) 4hr ([3]; 0.5 mg/kg i.p.): 36.50 ± 0.44 °C
BT (°C) 24hr ([3]; 0.5 mg/kg i.p.): 36.65 ± 0.41 °C
Manipulations 15min ([3]; 0.5 mg/kg i.p.): 0.00 ± 0.00
Manipulations 2hr ([3]; 0.5 mg/kg i.p.): 0.00 ± 0.00
Manipulations 4hr ([3]; 0.5 mg/kg i.p.): 0.00 ± 0.00
Passive 15min ([3]; 0.5 mg/kg i.p.): 0.00 ± 0.00
Passive 2hr ([3]; 0.5 mg/kg i.p.): 0.00 ± 0.00
Passive 4hr ([3]; 0.5 mg/kg i.p.): 0.00 ± 0.00
BW Day 1 ([3]; 0.5 mg/kg i.p.): 24.58 ± 0.93
BW Day 2 ([3]; 0.5 mg/kg i.p.): 24.76 ± 1.20
BT (°C) naïve ([3]; 1 mg/kg group): 37.90 ± 0.16 °C
Manipulations naïve ([3]; 1 mg/kg group): 0.00 ± 0.00
Passive naïve ([3]; 1 mg/kg group): 0.00 ± 0.00
BT (°C) 15min ([3]; 1 mg/kg i.p.): 33.53 ± 0.85 °C
BT (°C) 4hr ([3]; 1 mg/kg i.p.): 36.55 ± 0.48 °C
BT (°C) 24hr ([3]; 1 mg/kg i.p.): 36.53 ± 0.31 °C
Manipulations 15min ([3]; 1 mg/kg i.p.): 0.00 ± 0.00
Manipulations 2hr ([3]; 1 mg/kg i.p.): 0.00 ± 0.00
Manipulations 4hr ([3]; 1 mg/kg i.p.): 0.00 ± 0.00
Passive 15min ([3]; 1 mg/kg i.p.): 0.00 ± 0.00
Passive 2hr ([3]; 1 mg/kg i.p.): 0.00 ± 0.00
Passive 4hr ([3]; 1 mg/kg i.p.): 0.00 ± 0.00
body temperature 15 min after the injection ([3]; 1 mg/kg i.p.): decreased the body temperature
BW Day 1 ([3]; 1 mg/kg i.p.): 24.55 ± 0.94
BW Day 2 ([3]; 1 mg/kg i.p.): 24.10 ± 0.61

CN1C(=O)CC[C@H]1c1cccnc1 [Cotinine, (-)-cotinine]
freezing time ([1]; 100 mg/L): without affecting their freezing time
total distance traveled ([1]; 100 mg/L): reduced
time spent at the bottom ([1]; 100 mg/kg, 20 min treatment): spent less time at the bottom
time spent at the top ([1]; any doses (30, 100, and 300 mg/L)): not affected
time spent at the bottom ([1]; other concentrations (30 and 300 mg/L)): no effect
concentration inducing anxiolytic-like effect, fold higher than nicotine ([1]; zebrafish): 100 fold
SmartCube drug classification / behavioral features ([2]; all doses tested): no detectable effect
tolerability ([3]; mouse, in vivo, ip, 10 mg/kg): well tolerated
